Laboratory results reported in patent US7351688B2, “Compositions and methods for less immunogenic protein formulations” (The Research Foundation of State University of New York, priority 2003, dated 2008).

Tested on: Hemophilia A mice
Assay: Immunogenicity of simple complexes, subcutaneous: total antibody titers (ELISA) and inhibitory titers (Bethesda Units)
Conditions: mouse, in vivo, sc
Procedure: To illustrate this example, simple complexes were prepared with phosphoserine, phosphocholine or phaphatidic acid. Immunogenicity was tested by subcutaneous administration of the complexes in Hemophilia A mice.

phosphatidic acid
effect on immunogenicity (total antibody titers and inhibitory titers) versus rFVIII: not
